PubChem BioAssay (NCI)
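The compound was tested at five concentrations on cells cultured in 96-well plates, with a 48-hour exposure period. Definition used: TGI = concentration required for complete inhibition of growth.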

The compounds below were run on DMS 273 small cell lung (assay: growth of human tumour cells (NCI), 48 h).

Compound	TGI [µM]
COc1ccccc1N1C(=O)C2c3[nH]c4ccccc4c3C3CCC(C(C)(C)C)CC3C2C1=O (stereo not drawn)	> 100
CC(C)CCS(=O)(=O)OCCCCOS(=O)(=O)CCC(C)C	> 100

Each compound was assayed on M19-MEL melanoma (assay: growth of human tumour cells (NCI), 48 h).

Compound	TGI [µM]
COc1ccccc1N1C(=O)C2c3[nH]c4ccccc4c3C3CCC(C(C)(C)C)CC3C2C1=O (stereo not drawn)	> 100
CC(C)CCS(=O)(=O)OCCCCOS(=O)(=O)CCC(C)C	> 100

What follows are compounds tested on HT29 colon (assay: growth of human tumour cells (NCI), 48 h).

Compound	TGI [µM]
Cc1c(C(=O)CC(=O)C(=O)Nc2ccccc2C(F)(F)F)[n+](=O)c2ccccc2n1[O-]	57.2
COc1ccccc1N1C(=O)C2c3[nH]c4ccccc4c3C3CCC(C(C)(C)C)CC3C2C1=O (stereo not drawn)	> 100
O=C1C=CC(=O)c2c1ccc1c3ccccc3n(CCCCCCCCCCCCn3c4ccccc4c4ccc5c(c43)C(=O)C=CC5=O)c21	> 100
CC1(C)OC(=O)N(c2ccccc2)C12C=Cc1cc([N+](=O)[O-])cc([N+](=O)[O-])c1O2 (stereo not drawn)	> 100
C=CCN1C[C@H](C)N([C@H](c2ccc(C(=O)NC(CC)CC)cc2)c2cccc(OC)c2)C[C@H]1C	61.1
CC(C)CCS(=O)(=O)OCCCCOS(=O)(=O)CCC(C)C	> 100

Each compound was assayed on A549 NSCLC (assay: growth of human tumour cells (NCI), 48 h).

Compound	TGI [µM]
Cc1c(C(=O)CC(=O)C(=O)Nc2ccccc2C(F)(F)F)[n+](=O)c2ccccc2n1[O-]	75.6
COc1ccccc1N1C(=O)C2c3[nH]c4ccccc4c3C3CCC(C(C)(C)C)CC3C2C1=O (stereo not drawn)	> 100
O=C1C=CC(=O)c2c1ccc1c3ccccc3n(CCCCCCCCCCCCn3c4ccccc4c4ccc5c(c43)C(=O)C=CC5=O)c21	> 100
CC1(C)OC(=O)N(c2ccccc2)C12C=Cc1cc([N+](=O)[O-])cc([N+](=O)[O-])c1O2 (stereo not drawn)	> 100
C=CCN1C[C@H](C)N([C@H](c2ccc(C(=O)NC(CC)CC)cc2)c2cccc(OC)c2)C[C@H]1C	> 100
CC(C)CCS(=O)(=O)OCCCCOS(=O)(=O)CCC(C)C	> 100
O=C1/C(=C\c2ccccc2)C(NC2CCCCC2)c2ccccc21 (stereo not drawn)	16.4

Each compound was assayed on IGROV1 ovarian (assay: growth of human tumour cells (NCI), 48 h).

Compound	TGI [µM]
Cc1c(C(=O)CC(=O)C(=O)Nc2ccccc2C(F)(F)F)[n+](=O)c2ccccc2n1[O-]	47.5
COc1ccccc1N1C(=O)C2c3[nH]c4ccccc4c3C3CCC(C(C)(C)C)CC3C2C1=O (stereo not drawn)	> 100
O=C1C=CC(=O)c2c1ccc1c3ccccc3n(CCCCCCCCCCCCn3c4ccccc4c4ccc5c(c43)C(=O)C=CC5=O)c21	> 100
CC1(C)OC(=O)N(c2ccccc2)C12C=Cc1cc([N+](=O)[O-])cc([N+](=O)[O-])c1O2 (stereo not drawn)	> 100
C=CCN1C[C@H](C)N([C@H](c2ccc(C(=O)NC(CC)CC)cc2)c2cccc(OC)c2)C[C@H]1C	> 100
CC(C)CCS(=O)(=O)OCCCCOS(=O)(=O)CCC(C)C	> 100
O=C1/C(=C\c2ccccc2)C(NC2CCCCC2)c2ccccc21 (stereo not drawn)	10.4

What follows are compounds tested on SK-MEL-5 melanoma (assay: growth of human tumour cells (NCI), 48 h).

Compound	TGI [µM]
Cc1c(C(=O)CC(=O)C(=O)Nc2ccccc2C(F)(F)F)[n+](=O)c2ccccc2n1[O-]	30.4
COc1ccccc1N1C(=O)C2c3[nH]c4ccccc4c3C3CCC(C(C)(C)C)CC3C2C1=O (stereo not drawn)	> 100
O=C1C=CC(=O)c2c1ccc1c3ccccc3n(CCCCCCCCCCCCn3c4ccccc4c4ccc5c(c43)C(=O)C=CC5=O)c21	> 100
CC1(C)OC(=O)N(c2ccccc2)C12C=Cc1cc([N+](=O)[O-])cc([N+](=O)[O-])c1O2 (stereo not drawn)	> 100
C=CCN1C[C@H](C)N([C@H](c2ccc(C(=O)NC(CC)CC)cc2)c2cccc(OC)c2)C[C@H]1C	32.4
O=C1/C(=C\c2ccccc2)C(NC2CCCCC2)c2ccccc21 (stereo not drawn)	6.65

These compounds were tested on NCI-H460 lung (assay: growth of human tumour cells (NCI), 48 h).

Compound	TGI [µM]
Cc1c(C(=O)CC(=O)C(=O)Nc2ccccc2C(F)(F)F)[n+](=O)c2ccccc2n1[O-]	69.4
O=C1C=CC(=O)c2c1ccc1c3ccccc3n(CCCCCCCCCCCCn3c4ccccc4c4ccc5c(c43)C(=O)C=CC5=O)c21	> 100
CC1(C)OC(=O)N(c2ccccc2)C12C=Cc1cc([N+](=O)[O-])cc([N+](=O)[O-])c1O2 (stereo not drawn)	> 100
C=CCN1C[C@H](C)N([C@H](c2ccc(C(=O)NC(CC)CC)cc2)c2cccc(OC)c2)C[C@H]1C	> 100
CC(C)CCS(=O)(=O)OCCCCOS(=O)(=O)CCC(C)C	> 100
O=C1/C(=C\c2ccccc2)C(NC2CCCCC2)c2ccccc21 (stereo not drawn)	8.02

What follows are compounds tested on LOX IMVI melanoma (assay: growth of human tumour cells (NCI), 48 h).

Compound	TGI [µM]
Cc1c(C(=O)CC(=O)C(=O)Nc2ccccc2C(F)(F)F)[n+](=O)c2ccccc2n1[O-]	63.8
O=C1C=CC(=O)c2c1ccc1c3ccccc3n(CCCCCCCCCCCCn3c4ccccc4c4ccc5c(c43)C(=O)C=CC5=O)c21	> 100
CC1(C)OC(=O)N(c2ccccc2)C12C=Cc1cc([N+](=O)[O-])cc([N+](=O)[O-])c1O2 (stereo not drawn)	> 100
C=CCN1C[C@H](C)N([C@H](c2ccc(C(=O)NC(CC)CC)cc2)c2cccc(OC)c2)C[C@H]1C	58.6
CC(C)CCS(=O)(=O)OCCCCOS(=O)(=O)CCC(C)C	> 100
O=C1/C(=C\c2ccccc2)C(NC2CCCCC2)c2ccccc21 (stereo not drawn)	3.33

The compounds below were run on SK-MEL-2 melanoma (assay: growth of human tumour cells (NCI), 48 h).

Compound	TGI [µM]
Cc1c(C(=O)CC(=O)C(=O)Nc2ccccc2C(F)(F)F)[n+](=O)c2ccccc2n1[O-]	48.3
O=C1C=CC(=O)c2c1ccc1c3ccccc3n(CCCCCCCCCCCCn3c4ccccc4c4ccc5c(c43)C(=O)C=CC5=O)c21	> 100
CC1(C)OC(=O)N(c2ccccc2)C12C=Cc1cc([N+](=O)[O-])cc([N+](=O)[O-])c1O2 (stereo not drawn)	> 100
C=CCN1C[C@H](C)N([C@H](c2ccc(C(=O)NC(CC)CC)cc2)c2cccc(OC)c2)C[C@H]1C	46.1
O=C1/C(=C\c2ccccc2)C(NC2CCCCC2)c2ccccc21 (stereo not drawn)	5.25

The compounds below were run on UACC-62 melanoma (assay: growth of human tumour cells (NCI), 48 h).

Compound	TGI [µM]
Cc1c(C(=O)CC(=O)C(=O)Nc2ccccc2C(F)(F)F)[n+](=O)c2ccccc2n1[O-]	34.4
